Assays:
[1] = test system: subjects with type 1 diabetes; assay: 52-week randomized controlled clinical trial, basal insulin + prandial TI Inhalation Powder versus basal insulin + SC insulin aspart; type: in vivo, human; details: with basal insulin glargine
From the text: This was a prospective, multi-country, multicenter, open label, randomized, controlled clinical trial comparing glycemic control in subjects with type 1 diabetes receiving basal insulin and prandial insulin-FDKP (TI) Inhalation Powder (TI Inhalation Powder group) with subjects receiving basal insulin and SC rapid-acting insulin aspart (comparator group). This study included a 52-week treatment phase and a 4-week follow- up phase. During the 4-week follow-up phase, pulmonary function and select clinical laboratory assessments were scheduled.
The study began with enrollment at Week−3. Subjects received a complete battery of safety and eligibility assessments, including HbA1c and fasting plasma glucose (FPG).
At Week−1, subjects were randomized to one of the following 2 treatments: Basal insulin+prandial TI Inhalation Powder Basal insulin+prandial SC rapid-acting insulin
At Week-1, subjects again completed the first three components of the Insulin Treatment Questionnaire (ITQ) for the purpose of assessing test-retest reliability only). After completing the questionnaire, subjects randomized to the TI Inhalation Powder group were trained on the MEDTONE® Inhaler using TECHNOSPHERE®/insulin (insulin-FDKP) inhalation powder; subjects in the comparator group were trained in the use of the NOVOLOG® pens; all subjects were trained in administration of LANTUS®. Additionally, all subjects were trained on a blood glucose monitoring (HBGM) meter provided at the beginning of the trial and diary and received diabetes education. Any training was repeated at Week 0, if needed.
At the beginning of the treatment phase, subjects had several titration/dose evaluation visits to adjust insulin therapy. Titration visits occurred once a week for the first 4 weeks. During Weeks 4 through 10, there were three telephone “visits” (at Week 6, Week 8, and Week 10) to titrate dose, if necessary. However, dose titration was allowed throughout the trial.
All subjects completed a 7-point blood glucose profile on any 3 days during the week immediately preceding each visit from Week 0 to Week 52. The 7 time points included samples from before breakfast and 2 hours after breakfast, before the mid-day meal and 2 hours after the mid-day meal, before the evening meal and 2 hours after the evening meal and at bedtime (7 time points a day, over 3 days). These blood glucose (BG) values were recorded in the HBGM diary that was collected at clinic visits. […]
A meal challenge test was performed at Week 4 (during dose titration), Week 26, and Week 52. […] Blood glucose (BG) was also measured using HBGM glucose meters to aid the Investigator in treatment decisions and values were obtained at −30, 0, 60, and 120 minutes during the meal challenge. […]

[2] = manufacturer's prescribing information (Mar. 2007 revision); cited from earlier work
[3] = human, in vivo
Procedure: The insulin-FDKP formulation is administered to the subjects by oral inhalation using a MEDTONE® dry powder inhaler (MannKind Corp.). Following the completion of the meal challenge, the data was analyzed as per the statistical analysis plan. […] The study was amended (A1) and included 12 subjects (10 were reenrolled from the first meal challenge), and only two treatments, which were 10 U lispro and 60 and 90 U TI. The doses were selected based on the relative bioavailability observed following the first meal challenge (OP), where under an assumption of linear kinetics, 10 U lispro and 60 U TI would result in similar exposure. The 90 U dose group was included to assess the effect of the highest dose group of TI studied in Phase 3 trials. Six of the 12 subjects received 60 U TI and the other 6 subjects received 90 U TI. All 12 subjects received 10 U lispro in a crossover fashion. Methods and results below are described in terms of the Original Protocol (OP), which includes the meal challenge in 18 subjects with three treatments (EXUBERA®, lispro and TI) and Amendment 1 (A1), which includes 12 subjects treated with only TI and lispro. […] The subjects were screened and evaluated before, during and after the experiments and their data analyzed as described below. […]

[4] = test system: subjects with type 2 diabetes; assay: Meal challenge test, Original Protocol (OP): blood glucose, endogenous glucose production, glucose disappearance; type: in vivo, human; details: 45 U insulin-FDKP, 12 U sc lispro, 4 mg EXUBERA, FIG. 6
Procedure: The insulin-FDKP formulation is administered to the subjects by oral inhalation using a MEDTONE® dry powder inhaler (MannKind Corp.). Methods and results below are described in terms of the Original Protocol (OP), which includes the meal challenge in 18 subjects with three treatments (EXUBERA®, lispro and TI) and Amendment 1 (A1), which includes 12 subjects treated with only TI and lispro. […] The subjects were screened and evaluated before, during and after the experiments and their data analyzed as described below. Subjects were selected based on several key inclusion criteria, including, male and female, having ≥18 and ≤70 years of age with clinical diagnosis of type 2 diabetes mellitus for 12 months. […] Blood glucose concentrations were measured at regular intervals from arterialized venous blood samples. […] EGP was determined by measurement of 6,6-^2H2 glucose applying the modified calculations for the non-steady state ([…], and D. T. Stein. Calculating glucose fluxes during meal tolerance test: a new computational approach. Am.J.Physiol Endocrinol.Metab 293 (2):[…]-[…], 2007). C-peptide concentrations were measured pre- and post-dose to assess endogenous insulin secretion. In addition, glucagon and free fatty acid concentrations were also determined.

[5] = test system: subjects with type 2 diabetes; assay: Meal challenge test, Amendment 1 (A1): blood glucose, endogenous glucose production, glucose disappearance; type: in vivo, human; details: 60 U and 90 U insulin-FDKP groups, 10 U lispro, FIG. 11
Procedure: Following the completion of the meal challenge, the data was analyzed as per the statistical analysis plan. […] The study was amended (A1) and included 12 subjects (10 were reenrolled from the first meal challenge), and only two treatments, which were 10 U lispro and 60 and 90 U TI. The doses were selected based on the relative bioavailability observed following the first meal challenge (OP), where under an assumption of linear kinetics, 10 U lispro and 60 U TI would result in similar exposure. The 90 U dose group was included to assess the effect of the highest dose group of TI studied in Phase 3 trials. Six of the 12 subjects received 60 U TI and the other 6 subjects received 90 U TI. All 12 subjects received 10 U lispro in a crossover fashion. Methods and results below are described in terms of the Original Protocol (OP), which includes the meal challenge in 18 subjects with three treatments (EXUBERA®, lispro and TI) and Amendment 1 (A1), which includes 12 subjects treated with only TI and lispro. […] The subjects were screened and evaluated before, during and after the experiments and their data analyzed as described below. […] Blood glucose concentrations were measured at regular intervals from arterialized venous blood samples. […]

insulin aspart
mean FPG at the end of the treatment period ([1]; 52 weeks): 161.3 (SD 68.2) mg/dL | average body weight gain over the 52-week treatment period [1]: 1.4 kg | HbA1c at Week 14 ([1]; baseline 8.41 (SD 0.92) TI arm, 8.48 (SD 0.97) insulin aspart arm): 8.07 (SD 1.09) % | mean decrease in fasting plasma glucose (FPG) over the 52-week treatment period ([1]; baseline 187.6 (SD 85.1) TI group, 180.8 (SD 86.9) comparator group): 23.4 (SD 103.1) mg/dL

insulin glargine
period of relatively constant glucose lowering activity [2]: 24 h

insulin lispro
median tmax of insulin concentrations [3]: 1.25 h | time at which glucose disappearance rate peaked after dosing [4]: about 120 minutes | time at which glucose disappearance rate peaked after dosing [5]: about 100 minutes

Reference: patent publication US11931404B2, “Use of ultrarapid acting insulin” (MannKind Corporation, priority 2014, dated 2024)
